These results are taken from ChEMBL document CHEMBL4145517, “Advances on photodynamic therapy of melanoma through novel ring-fused 5,15-diphenylchlorins” (Eur J Med Chem, 2018).

The subject of data set [1] is A-375. The data set can be described thus: Photocytotoxicity against human A375 cells preincubated for 24 hrs followed by exposure to light with fluence rate of 7.5 mW/cm2 until 10 J measured after 24 hrs by MTT assay. It is filed as functional, cell-based.
A short description of data set [2]: Dark toxicity against human A375 cells at 1 to 10 uM after 24 hrs by MTT assay. It is filed as cell-based. The conditions noted are these: a-375, 24 h. For orientation: Tetrazolium assays rely on reduction of a dye to a coloured formazan, in cell work by metabolically active cells.
A short description of data set [3]: Dark toxicity against human HFF1 cells at 1 to 10 uM after 24 hrs by MTT assay. It is filed as cell-based. The conditions noted are these: hff-1, 24 h.
For data set [4], the system named is A-375. In words: Photocytotoxicity against human A375 cells at 5 to 500 nM preincubated for 24 hrs followed by exposure to light with fluence rate of 7.5 mW/cm2 until 5 to 10 J and measured after 24 hrs by MTT assay. It is filed as functional, cell-based.
Data set [5] concerns A-375. The data set can be described thus: Photocytotoxicity against human A375 cells assessed as decrease in cell viability by measuring protein content at >= 50 nM preincubated for 24 hrs followed by exposure to light with fluence rate of 7.5 mW/cm2 at 10 J and measured after 24 hrs by sulforhodamine B assay. It is filed as functional, cell-based.
The subject of data set [6] is A-375. In words: Induction of apoptosis in human A375 cells at 50 nM preincubated for 24 hrs followed by exposure to light with fluence rate of 7.5 mW/cm2 at 10 J and measured after 24 hrs by Annexin-V/propidium iodide staining-based FACS analysis. It is filed as functional, cell-based. Background: Flow cytometry measures light scatter and fluorescence of single cells or particles in a stream.

Data set [7] deals with A-375. The data set can be described thus: Induction of apoptosis in human A375 cells assessed as decrease in living cells at 500 nM preincubated for 24 hrs followed by exposure to light with fluence rate of 7.5 mW/cm2 at 10 J and measured after 24 hrs by Annexin-V/propidium iodide stainin-based FACS analysis. It is filed as functional. Set-up: scale not given: the % may be the effect or the level left.

In data set [8] the test system is A-375. The data set can be described thus: Decrease in intracellular peroxides generation in human A375 cells at 500 nM preincubated for 24 hrs followed by exposure to light with fluence rate of 7.5 mW/cm2 at 10 J and measured after 24 hrs by DCFH2-DA staining-based fluorescence analysis. It is filed as functional, cell-based.
Data set [9] deals with A-375. In words: Decrease in intracellular superoxide anion generation in human A375 cells at 500 nM preincubated for 24 hrs followed by exposure to light with fluence rate of 7.5 mW/cm2 at 10 J and measured after 24 hrs by dihydroethidium staining-based fluorescence analysis. It is filed as functional, cell-based.
The subject of data set [10] is A-375. The data set can be described thus: Phototoxicity against human A375 cells assessed as reduction in cell viability up to 500 nM preincubated for 24 hrs followed by exposure to light with fluence rate of 7.5 mW/cm2 at 10 J and measured after 24 hrs in presence of singlet oxygen scavenger sodium azide by MTT assay. It is filed as functional, cell-based.
In data set [11] the test system is A-375. The data set can be described thus: Phototoxicity against human A375 cells assessed as reduction in cell viability up to 500 nM preincubated for 24 hrs followed by exposure to light with fluence rate of 7.5 mW/cm2 at 10 J and measured after 24 hrs in presence of hydroxyl radical scavenger D-mannitol by MTT assay. It is filed as functional, cell-based.
The subject of data set [12] is A-375. In words: Increase in expression of reduced glutathione in human A375 cells up to 500 nM preincubated for 24 hrs followed by exposure to light with fluence rate of 7.5 mW/cm2 at 10 J and measured after 24 hrs by mercury orange staining-based fluorescence analysis. It is filed as functional, cell-based.
The subject of data set [13] is A-375. The data set can be described thus: Cell cycle arrest in human A375 cells assessed as accumulation at pre-G0 phase up to 500 nM preincubated for 24 hrs followed by exposure to light with fluence rate of 7.5 mW/cm2 at 10 J and measured after 24 hrs by propidium iodide/RNase-staining based flow cytometric analysis. It is filed as functional.
Data set [14] deals with A-375. The data set can be described thus: Induction of p53 expression in human A375 cells at 50 nM preincubated for 24 hrs followed by exposure to light with fluence rate of 7.5 mW/cm2 at 10 J and measured after 24 hrs by Western blot analysis. It is filed as functional, cell-based. (In western blotting, separated proteins are transferred to a membrane and probed.)
A short description of data set [15]: Drug uptake in human A375 cells preincubated for 24 hrs followed by exposure to light with fluence rate of 7.5 mW/cm2 at 10 J measured after 24 hrs by fluorescence spectroscopic analysis. It is filed as ADME, cell-based. To be noted: a-375, 24 h.
Data set [16] has as its system A-375. The data set can be described thus: Photocytotoxicity against human A375 cells at 5 to 50 nM preincubated for 24 hrs followed by exposure to light with fluence rate of 7.5 mW/cm2 until 20J and measured after 24 hrs by MTT assay. It is filed as functional, cell-based.
The test system of data set [17] is A-375. In words: Disruption of mitochondrial membrane potential in human A375 cells at 50 nM preincubated for 24 hrs followed by exposure to light with fluence rate of 7.5 mW/cm2 at 10 J and measured after 24 hrs by JC-1 staining-based assay. It is filed as functional, cell-based.
In data set [18] the test system is A-375. In words: Induction of apoptosis in human A375 cells assessed as increase in necrotic cells at 50 nM preincubated for 24 hrs followed by exposure to light with fluence rate of 7.5 mW/cm2 at 10 J and measured after 24 hrs by Annexin-V/propidium iodide stainin-based FACS analysis. It is filed as functional, cell-based.
Data set [19] deals with A-375. In words: Disruption of mitochondrial membrane potential in human A375 cells at 500 nM preincubated for 24 hrs followed by exposure to light with fluence rate of 7.5 mW/cm2 at 10 J and measured after 24 hrs by JC-1 staining-based assay. It is filed as functional, cell-based.
The nature of data set [20]: Dark toxicity against human HFF1 cells at 5 to 10 uM after 24 hrs by MTT assay. It is filed as cell-based. The conditions noted are these: hff-1, 24 h.
The nature of data set [21]: Dark toxicity against human A375 cells at 5 to 10 uM after 24 hrs by MTT assay. It is filed as cell-based. The conditions noted are these: a-375, 24 h.
Data set [22] concerns A-375. In words: Cell cycle arrest in human A375 cells assessed as accumulation at G2/M phase up to 500 nM preincubated for 24 hrs followed by exposure to light with fluence rate of 7.5 mW/cm2 at 10 J and measured after 24 hrs by propidium iodide/RNase-staining based flow cytometric analysis. It is filed as functional.
Data set [23] deals with A-375. In words: Cell cycle arrest in human A375 cells assessed as accumulation at G1 phase up to 500 nM preincubated for 24 hrs followed by exposure to light with fluence rate of 7.5 mW/cm2 at 10 J and measured after 24 hrs by propidium iodide/RNase-staining based flow cytometric analysis. It is filed as functional.
Data set [24] has as its system A-375. The data set can be described thus: Induction of apoptosis in human A375 cells assessed as increase in necrotic cells at 500 nM preincubated for 24 hrs followed by exposure to light with fluence rate of 7.5 mW/cm2 at 10 J and measured after 24 hrs by Annexin-V/propidium iodide stainin-based FACS analysis. It is filed as functional, cell-based.

Active and inactive are the calls of the source. The rule behind the calls is not given here.

As to `COC(=O)c1nn2c(c1C(=O)OC)CC1c3cc4ccc([nH]4)c(-c4ccccc4)c4nc(cc5ccc([nH]5)c(-c5ccccc5)c(n3)C1C2)C=C4` (stereo not drawn), in data set [1], the IC50 (as a rule, the point on the concentration scale where inhibition reaches its midpoint) amounted to 14.3 nM. Further, the results for the Activity result in [2], in [3] and in [7] were “Non-Toxic”, “Non-Toxic” and more than 50%, respectively. In addition, the result in data set [4], in [5], in data set [6], in [8], in data set [9] and in data set [11] was Active. Also, the outcome in data set [13], in data set [14], in [16] and in data set [17] was Active. The outcome in [10] and in [12] was inactive. Also, the Drug uptake entry in [15] is given as “Dose-dependent effect”.

`COC(=O)c1nn2c(c1C(=O)OC)CC1c3nc(cc4ccc([nH]4)c(-c4ccccc4)c4nc(cc5ccc([nH]5)c3-c3ccccc3)C=C4)C1C2` (stereo not drawn) had a half-inhibitory concentration (IC50) in data set [1] of 14.5 nM. Also, the Activity entry in data set [2] was “Non-Toxic”; in [3], “Non-Toxic”; in data set [7] it was more than 50%. The outcome in [4], in [5], in [18], in data set [19], in data set [8] and in data set [9] was Active. Further, the outcome in [10], in data set [11], in data set [13], in data set [14], in [16] and in data set [17] was Active. The result in data set [12] was inactive. In addition, in data set [15], the Drug uptake entry is on record as “Dose-dependent effect”.

Consider `OCc1nn2c(c1CO)CC1c3nc(cc4ccc([nH]4)c(-c4ccccc4)c4nc(cc5ccc([nH]5)c3-c3ccccc3)C=C4)C1C2` (stereo not drawn), for which the IC50 in [1] came out at 2.9 nM. For the same molecule, the Activity result in [20] and in [21] was “Toxic” each time. Besides, the outcome in data set [4], in data set [5], in [6], in data set [8], in data set [9] and in data set [10] was Active. Further, the outcome in data set [11], in [13], in [14], in [16] and in data set [17] was Active. Besides, the result in data set [7] and in [12] was inactive. In addition, the Drug uptake result in data set [15] is on record as “Dose-dependent effect”.

As to `OCc1nn2c(c1CO)CC1c3cc4ccc([nH]4)c(-c4ccccc4)c4nc(cc5ccc([nH]5)c(-c5ccccc5)c(n3)C1C2)C=C4` (stereo not drawn), it took 4.9 nM to reach half-maximal inhibition in data set [1] (IC50). Besides, the Activity result in data set [2] is “Non-Toxic”; in data set [3], “Non-Toxic”; in data set [7], more than 50%. Besides, the result in [4], in data set [5], in data set [6], in data set [19], in [8] and in data set [9] was Active. For the same molecule, the outcome in data set [11], in data set [13], in data set [22], in [23], in [14] and in [16] was Active. Also, the result in [24] and in data set [17] was Active. Also, the outcome in data set [10] and in data set [12] was inactive. In addition, in data set [15], the Drug uptake entry was “Dose-dependent effect”.
